In US9120752B2, “Pyridine compounds as sodium channel blockers” (Purdue Pharma, L.P., priority 2010, dated 2015):

Biological target: human Nav1.7 (Homo sapiens (Human), UniProt Q15858)
Assay: FLIPR or FLIPR TETRA sodium dye assay with KCl and test article pre-incubation
Type: cell-based
Conditions: sodium dye assay with KCl; recombinant Nav1.7/HEK293 cells; read-out: Nav1.7 IC50 (μM) ± SEM

human Nav1.7, sequence (Q15858 other isoform, or with tags, fused parts or gaps): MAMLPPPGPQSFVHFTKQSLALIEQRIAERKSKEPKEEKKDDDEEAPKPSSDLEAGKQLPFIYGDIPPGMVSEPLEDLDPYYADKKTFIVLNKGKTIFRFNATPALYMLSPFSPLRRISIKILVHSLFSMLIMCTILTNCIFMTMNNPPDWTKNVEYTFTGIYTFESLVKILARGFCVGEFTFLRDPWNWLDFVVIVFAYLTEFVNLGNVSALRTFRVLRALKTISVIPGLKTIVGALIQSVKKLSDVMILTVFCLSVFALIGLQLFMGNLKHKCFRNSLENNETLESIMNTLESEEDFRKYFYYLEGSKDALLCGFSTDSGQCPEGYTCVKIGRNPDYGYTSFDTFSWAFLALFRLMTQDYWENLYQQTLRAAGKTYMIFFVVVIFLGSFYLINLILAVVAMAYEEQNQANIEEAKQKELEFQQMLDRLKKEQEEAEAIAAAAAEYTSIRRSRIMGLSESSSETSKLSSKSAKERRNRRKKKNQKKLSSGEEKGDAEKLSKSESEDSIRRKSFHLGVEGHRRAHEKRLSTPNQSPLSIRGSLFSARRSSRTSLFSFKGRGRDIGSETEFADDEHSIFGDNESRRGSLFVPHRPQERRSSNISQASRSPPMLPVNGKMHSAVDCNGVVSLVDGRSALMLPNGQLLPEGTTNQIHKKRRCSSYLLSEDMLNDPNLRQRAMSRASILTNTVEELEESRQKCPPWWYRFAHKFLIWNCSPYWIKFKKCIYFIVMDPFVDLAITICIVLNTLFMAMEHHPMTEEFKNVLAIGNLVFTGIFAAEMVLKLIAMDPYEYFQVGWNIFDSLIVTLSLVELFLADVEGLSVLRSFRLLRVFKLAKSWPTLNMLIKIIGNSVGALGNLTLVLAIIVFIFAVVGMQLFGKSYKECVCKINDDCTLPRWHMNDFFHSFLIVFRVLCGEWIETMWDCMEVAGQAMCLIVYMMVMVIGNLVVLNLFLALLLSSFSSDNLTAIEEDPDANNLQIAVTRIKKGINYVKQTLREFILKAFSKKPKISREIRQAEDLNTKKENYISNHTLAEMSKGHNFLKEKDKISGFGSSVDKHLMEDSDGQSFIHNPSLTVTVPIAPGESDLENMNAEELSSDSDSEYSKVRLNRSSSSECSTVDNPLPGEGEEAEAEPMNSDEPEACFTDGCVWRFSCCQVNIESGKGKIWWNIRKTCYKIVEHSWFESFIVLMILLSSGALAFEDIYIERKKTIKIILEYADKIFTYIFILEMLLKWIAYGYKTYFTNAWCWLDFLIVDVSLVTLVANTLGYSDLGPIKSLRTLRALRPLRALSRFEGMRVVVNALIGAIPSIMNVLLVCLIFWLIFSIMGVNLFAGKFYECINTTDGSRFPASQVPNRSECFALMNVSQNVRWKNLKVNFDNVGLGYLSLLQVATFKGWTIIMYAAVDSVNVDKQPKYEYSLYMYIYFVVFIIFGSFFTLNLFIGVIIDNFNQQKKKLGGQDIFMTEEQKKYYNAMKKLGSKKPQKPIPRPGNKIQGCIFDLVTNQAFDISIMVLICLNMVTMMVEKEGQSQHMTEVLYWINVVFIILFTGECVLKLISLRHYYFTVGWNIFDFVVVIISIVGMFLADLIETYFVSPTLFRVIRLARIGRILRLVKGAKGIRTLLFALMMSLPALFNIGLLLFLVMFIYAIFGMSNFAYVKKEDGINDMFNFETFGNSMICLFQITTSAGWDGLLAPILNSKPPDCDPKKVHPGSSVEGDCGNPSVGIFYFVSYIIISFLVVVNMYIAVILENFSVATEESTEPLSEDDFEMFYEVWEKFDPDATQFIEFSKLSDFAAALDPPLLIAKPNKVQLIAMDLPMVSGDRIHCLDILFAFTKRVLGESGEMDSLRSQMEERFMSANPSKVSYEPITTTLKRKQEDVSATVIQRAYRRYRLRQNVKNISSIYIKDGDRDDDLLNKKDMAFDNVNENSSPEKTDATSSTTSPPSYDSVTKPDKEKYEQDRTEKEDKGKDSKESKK

First: N#Cc1cccc(S(=O)(=O)NCCNC(=O)c2cccc(-c3ccc(Oc4ccc(F)cc4)cc3)n2)c1 [Compound 24, N-(2-(3-cyanophenylsulfonamido)ethyl)-6-(4-(4-fluorophenoxy)phenyl)picolinamide]
Second: NC(=O)[C@H](Cc1ccccc1)NC(=O)c1cccc(-c2ccc(Oc3ccc(F)cc3)cc2)n1 [Compound 41, 6-[4-(4-fluoro-phenoxy)-phenyl]-pyridine-2-carboxylic acid ((S)-1-carbamoyl-2-phenyl-ethyl)-amide]
The IC50 of the first is lower: 0.03 ± 0.04 µM for the first, > 20 µM for the second.

First: NC(=O)[C@@H](Cc1c[nH]c2ccccc12)NC(=O)c1cccc(-c2ccc(Oc3ccc(F)cc3)cc2)n1 [Compound 37, 6-[4-(4-fluoro-phenoxy)-phenyl]-pyridine-2-carboxylic acid [(R)-1-carbamoyl-2-(1H-indol-3-yl)-ethyl]-amide]
Second: NC(=O)[C@H](Cc1ccc(O)cc1)NC(=O)c1cccc(-c2ccc(Oc3ccc(F)cc3)cc2)n1 [Compound 48, 6-[4-(4-fluoro-phenoxy)-phenyl]-pyridine-2-carboxylic acid [(S)-1-carbamoyl-2-(4-hydroxy-phenyl)-ethyl]-amide]
The IC50 of the first is 7.3-fold higher: 4.02 ± 2.78 µM for the first, 0.55 ± 0.08 µM for the second. The second is the more potent here.

Compared with `NC(=O)C[C@H](NC(=O)c1cccc(-c2ccc(Oc3ccc(F)cc3)cc2)n1)C(N)=O` [Compound 39, (S)-2-({6-[4-(4-fluoro-phenoxy)-phenyl]-pyridine-2-carbonyl}-amino)-succinamide], `NC(=O)[C@@H](CO)NC(=O)c1cccc(-c2ccc(Oc3ccc(F)cc3)cc2)n1` [Compound 40, 6-[4-(4-fluoro-phenoxy)-phenyl]-pyridine-2-carboxylic acid ((R)-1-carbamoyl-2-hydroxyl-ethyl)-amide] is 1.8-fold higher in IC50: 0.75 ± 0.05 µM for the first, 1.32 ± 0.16 µM for the second.

`NC(=O)[C@@H]1CCCN1C(=O)c1cccc(-c2ccc(Oc3ccc(F)cc3)cc2)n1` [Compound 42, (S)-1-{6-[4-(4-fluoro-phenoxy)-phenyl]-pyridine-2-carbonyl}-pyrrolidine-2-carboxylic acid amide] and `NC(=O)[C@H](CO)NC(=O)c1cccc(-c2ccc(Oc3ccc(F)cc3)cc2)n1` [Compound 47, 6-[4-(4-fluoro-phenoxy)-phenyl]-pyridine-2-carboxylic acid ((S)-1-carbamoyl-2-hydroxy-ethyl)-amide] are within error of each other in IC50: 2.12 ± 0.35 µM for the first, 1.53 ± 0.33 µM for the second.

Compared with `CC(O)[C@H](NC(=O)c1cccc(-c2ccc(Oc3ccc(F)cc3)cc2)n1)C(N)=O` (stereo partly drawn) [Compound 43, 6-[4-(4-fluoro-phenoxy)-phenyl]-pyridine-2-carboxylic acid ((S)-1-carbamoyl-2-hydroxy-propyl)-amide], `CC(C)[C@H](NC(=O)c1cccc(-c2ccc(Oc3ccc(F)cc3)cc2)n1)C(N)=O` [Compound 46, 6-[4-(4-fluoro-phenoxy)-phenyl]-pyridine-2-carboxylic acid ((S)-1-carbamoyl-2-methyl-propyl)-amide] is 2.6-fold lower in IC50: 1.56 ± 0.5 µM for the first, 0.61 ± 0.05 µM for the second. The second is the more potent here.

Compared with `CC(C)C[C@H](NC(=O)c1cccc(-c2ccc(Oc3ccc(F)cc3)cc2)n1)C(N)=O` [Compound 44, 6-[4-(4-fluoro-phenoxy)-phenyl]-pyridine-2-carboxylic acid ((S)-1-carbamoyl-3-methyl-butyl)-amide], `NCCCC[C@H](NC(=O)c1cccc(-c2ccc(Oc3ccc(F)cc3)cc2)n1)C(N)=O` [Compound 51, (S)—N-(1,6-diamino-1-oxohexan-2-yl)-6-(4-(4-fluorophenoxy)phenyl)picolinamide] is 8.5-fold higher in IC50: 0.34 ± 0.07 µM for the first, 2.89 ± 0.33 µM for the second. The first is the more potent here.

Going from `NC(=O)[C@H](Cc1cccnc1)NC(=O)c1cccc(-c2ccc(Oc3ccc(F)cc3)cc2)n1` [Compound 45, (S)—N-(1-amino-1-oxo-3-(pyridin-3-yl)propan-2-yl)-6-(4-(4-fluorophenoxy)phenyl)picolinamide] to `NC(=O)[C@H](Cc1c[nH]cn1)NC(=O)c1cccc(-c2ccc(Oc3ccc(F)cc3)cc2)n1` [Compound 49, 6-[4-(4-fluoro-phenoxy)-phenyl]-pyridine-2-carboxylic acid [(S)-1-carbamoyl-2-(1H-imidazol-4-yl)-ethyl]-amide], the IC50 rises from 0.21 ± 0.04 µM to 0.33 ± 0.02 µM (1.6-fold). The first is the more potent here.

`N#Cc1cccc(S(=O)(=O)N2CCN(C(=O)c3cccc(Oc4ccc(F)cc4)n3)CC2)c1` [Compound 55, 3-((4-(6-(4-fluorophenoxy)picolinoyl)piperazin-1-yl)sulfonyl)benzonitrile] and `N#Cc1cccc(S(=O)(=O)N2CCN(C(=O)c3cccc(-c4ccc(F)cc4)n3)CC2)c1` [Compound 56, 3-((4-(6-(4-fluorophenyl)picolinoyl)piperazin-1-yl)sulfonyl)benzonitrile] are within error of each other in IC50: 5.94 ± 0.73 µM for the first, 6.81 ± 0.57 µM for the second.

Compared with `N#Cc1cccc(S(=O)(=O)N2CCN(C(=O)c3cc([C@H](O)CO)cc(-c4ccc(Oc5ccc(F)cc5)cc4)n3)CC2)c1` [Compound 58, (S)-3-((4-(4-(1,2-dihydroxyethyl)-6-(4-(4-fluorophenoxy)phenyl)picolinoyl)piperazin-1-yl)sulfonyl)benzonitrile], `N#Cc1cc(S(=O)(=O)N2CCN(C(=O)c3cccc(-c4ccc(Oc5ccc(F)cc5)cc4)n3)CC2)ccc1F` [Compound 59] is 6.8-fold lower in IC50: 2.31 ± 0.62 µM for the first, 0.34 ± 0.13 µM for the second. The second is the more potent here.

`CN1CCOc2cc(S(=O)(=O)N3CCN(C(=O)c4cccc(-c5ccc(Oc6ccc(F)cc6)cc5)n4)CC3)ccc21` [Compound 60, (6-(4-(4-fluorophenoxy)phenyl)pyridin-2-yl)(4-((4-methyl-3,4-dihydro-2H-benzo[b][1,4]oxazin-7-yl)sulfonyl)piperazin-1-yl)methanone] and `CC(C)C[C@H](NC(=O)c1cc([C@H](O)CO)cc(-c2ccc(Oc3ccc(F)cc3)cc2)n1)C(N)=O` [Compound 63, N—((S)-1-amino-4-methyl-1-oxopentan-2-yl)-4-((S)-1,2-dihydroxyethyl)-6-(4-(4-fluorophenoxy)phenyl)picolinamide] are within error of each other in IC50: 0.78 ± 0.1 µM for the first, 0.814 ± 0.231 µM for the second.

Compared with `C[C@H](NC(=O)c1cccc(-c2ccc(Oc3ccc(C(F)(F)F)cn3)cc2)n1)C(N)=O` [Compound 61, (S)—N-(1-amino-1-oxopropan-2-yl)-6-(4-((5-(trifluoromethyl)pyridin-2-yl)oxy)phenyl)picolinamide], `CC(C)C[C@H](NC(=O)c1cc([C@@H](O)CO)cc(-c2ccc(Oc3ccc(F)cc3)cc2)n1)C(N)=O` [Compound 65, N—((S)-1-amino-4-methyl-1-oxopentan-2-yl)-4-((R)-1,2-dihydroxyethyl)-6-(4-(4-fluorophenoxy)phenyl)picolinamide] is 2.8-fold lower in IC50: 4.34 ± 0.73 µM for the first, 1.56 ± 0.166 µM for the second.

`NC(=O)C[C@H](NC(=O)c1cc([C@H](O)CO)cc(-c2ccc(Oc3ccc(F)cc3)cc2)n1)C(N)=O` [Compound 64, (S)-2-(4-((S)-1,2-dihydroxyethyl)-6-(4-(4-fluorophenoxy)phenyl)picolinamido)succinamide] and `NC(=O)C[C@H](NC(=O)c1cc([C@@H](O)CO)cc(-c2ccc(Oc3ccc(F)cc3)cc2)n1)C(N)=O` [Compound 66, (S)-2-(4-((R)-1,2-dihydroxyethyl)-6-(4-(4-fluorophenoxy)phenyl)picolinamido) succinamide] cannot be ordered by IC50: > 20 µM for the first, > 20 µM for the second.

Test system: FCA-induced inflammation of the rat hind paw
Assay: Freund's complete adjuvant (FCA) model of inflammatory pain, paw withdrawal threshold
Type: in vivo
Conditions: 10 mg/kg, oral (PO), 3 h post administration
Procedure: Each experiment uses rats weighing between 200-260 g at the start of the experiment. The rats are group-housed and have free access to food and water at all times, except prior to oral administration of a test compound when food is removed for 16 hours before dosing. A control group acts as a comparison to rats treated with a compound of Formulae I-XIII. The control group is administered the carrier as used for the test compound. The volume of carrier administered to the control group is the same as the volume of carrier and test compound administered to the test group.
To assess the actions of the compounds of Formulae I-XIII on the treatment of inflammatory pain the Freund's complete adjuvant (“FCA”) model of inflammatory pain was used. […] 24 hour post injection, the animal was assessed for response to noxious mechanical stimuli by determining the paw withdrawal threshold (PWT), or to noxious thermal stimuli by determining the paw withdrawal latency (PWL), as described below. […] Responses to noxious mechanical or thermal stimuli were determined 1, 3, and 5 hours post administration (admin). […]
Sensitivity to noxious mechanical stimuli can be measured in animals using the paw pressure test to assess mechanical hyperalgesia. […] PWT is determined once for each rat at each time point. PWT can be measured only in the injured paw, or in both the injured and non-injured paw. […]

With `NC(=O)[C@H](CO)NC(=O)c1cccc(-c2ccc(Oc3ccc(F)cc3)cc2)n1` [Compound 47, 6-[4-(4-fluoro-phenoxy)-phenyl]-pyridine-2-carboxylic acid ((S)-1-carbamoyl-2-hydroxy-ethyl)-amide] the “increase in PWT (paw withdrawal threshold)” value was “statistically significant increase”.

Same assay, conditions: 30 mg/kg, oral (PO), 1, 3 and 5 h post administration

For `NC(=O)[C@H](CO)NC(=O)c1cccc(-c2ccc(Oc3ccc(F)cc3)cc2)n1` [Compound 47, 6-[4-(4-fluoro-phenoxy)-phenyl]-pyridine-2-carboxylic acid ((S)-1-carbamoyl-2-hydroxy-ethyl)-amide], the “increase in PWT (paw withdrawal threshold)” value was “statistically significant increase”.
